# According to article PMC2131757 (BMC Neuroscience, 2007):
# How the values were obtained:
# Type in all cases: cell-based, murine
# [1] = system: NB4 1A3 neuroblastoma cells
# [2] = system: cPLA2 in NB4 1A3 neuroblastoma cells
# [3] = system: COX-1 in NB4 1A3 neuroblastoma cells
# [4] = system: NB4 1A3 neuroblastoma cells; conditions: n = 6
# [5] = system: NB4 1A3 neuroblastoma cells; remark: listed apart in the source
# [6] = system: NB4 1A3 neuroblastoma cells; remark: listed apart in the source
# NB4 neuroblastoma cells = system: NB4 neuroblastoma cells
Molecule,% of MoPrP105-132 co-localised with CTxB in squalestatin-treated cells [1],% of MoPrP105-132 co-localised with GM130 (Golgi) in squalestatin-treated cells [1],% of MoPrP105-132 co-localised with Grp78 (ER) in squalestatin-treated cells [1],% of MoPrP105-132 co-localised with LAMP-1 (lysosomes) in squalestatin-treated cells [1],% of MoPrP105-132 co-localised with TfR (early endosomes) in squalestatin-treated cells [1],% of MoPrP105-132 co-localised with caveolin-1 in squalestatin-treated cells [1],% of MoPrP105-132 co-localised with cPLA2 in squalestatin-treated cells [2],% of MoPrP105-132 co-localised with COX-1 in squalestatin-treated cells [3],cell associated fluorescence (mean fluorescence intensity) of ingested MoPrP105-132 in squalestatin treated cells [4],membrane fraction in which MoPrP105-132 is found (raft / non-raft) in squalestatin-treated cells [5],endosomal fraction in which MoPrP105-132 is detected in squalestatin-treated cells [6],effect of squalestatin treatment on MoPrP105-132 induced neurotoxicity (NB4 neuroblastoma cells),% of MoPrP105-132 co-localised with cPLA2 in Hexa-PAF-treated cells [2],% of MoPrP105-132 co-localised with COX-1 in Hexa-PAF-treated cells [3]
"C=C(CC[C@]12O[C@H](C(=O)O)[C@@](O)(C(=O)O)[C@](C(=O)O)(O1)[C@H](OC(=O)/C=C/[C@@H](C)C[C@@H](C)CC)[C@H]2O)[C@@H](OC(C)=O)[C@H](C)Cc1ccccc1 [Squalestatin, squalestatin]",5% ± 1,7% ± 2,3% ± 2,40% ± 6,68% ± 8,9% ± 3,13% ± 4,5% ± 5,25.3 ± 4 arbitrary units,most of the MoPrP105-132 was detected in the non-raft fraction,"detected in the LAMP-1 positive, TfR negative, lysosomal fraction",prevent peptide-induced neurotoxicity,–,–
"1-O-alkyl-2-acetyl-sn-glycerol-3-phospho-(N,N,N-trimethyl)-hexanolamine [Hexa-PAF]",–,–,–,–,–,–,–,–,–,–,–,–,22% ± 6,13% ± 3
